Test results reported in article PMC2944077, “Placental Transfer of Conjugated Bisphenol A and Subsequent Reactivation in the Rat Fetus” (Environmental Health Perspectives, 2010).

Assays:
[1] = Uterine perfusion of pregnant rats with glucuronide substrate; distribution in maternal-placental-fetal unit; type: in vivo, rat; conditions: for Amount of substrate (glucuronide) detected in perfusate (maternal side): 2 μM substrate 20 min (120 nmol total) then 70 min without substrate
Source text: Additional details of the surgical procedure are available in the Supplemental Material (doi:10.1289/ehp.0901575). In this perfusion system, the perfusate pumped into the abdominal aorta is circulated through one uterine artery– placenta–fetus–uterine vein unit and drips from the drain tube inserted in the caudal vein. After the perfusion, dams and fetuses were euthanized by incision of the caudal vena cava under anesthesia and tissues were collected.
We used modified Krebs-Ringer’s buffer (mKRB; 126 mM NaCl, 3 mM KCl, 1.2 mM KH2PO4, 1.3 mM MgSO4, 2.4 mM CaCl2, 10 mM glucose, 26 mM NaHCO3, 2.5% dextran from Leuconostoc mesenteroides, and 3% Dextran 70) as the perfusate. The perfusate was pumped at a constant rate of 3 mL/min. First, we perfused four animals in a preliminary group with 10 μM BPA-GA for 20 min to determine whether BPA-GA is transferred into the fetus across the placenta. In this group, we performed a preliminary perfusion with mKRB for 5 min to wash away blood, followed by 20 min inflow of mKRB containing 10 μM BPA-GA. After the perfusion, the fetus and amniotic fluid were collected.
To elucidate the kinetics of perfused BPA-GA, we used another group of four animals to compare the amount of BPA-GA in maternal veins with that in fetal tissue. After preliminary perfusion with mKRB for 5 min, pregnant rats were perfused with mKRB containing 2 μM BPA-GA for 20 min. Then, mKRB without BPA-GA was perfused for 70 min (a total of 90 min). From the beginning of the BPA-GA perfusion, the perfusate that drained from the caudal vena cava was collected from each animal at 5-min intervals for 90 min. At the end of perfusate collection, the fetus, amnion, amniotic fluid, uterus, and placenta were collected. We also performed a control study using 1-naphthol-glucuronide (1-NA-GA; Nacalai Tesque Inc., Kyoto, Japan) as the substrate. Four pregnant rats were used in each perfusion group. […]
Perfusates collected from the caudal vena cava were collected after uterine perfusion and prepared for HPLC and LC/TOF-MS analysis. Each perfusate sample was mixed with a 4-fold volume of acetonitrile and centrifuged at 13,000 rpm for 5 min at 4°C; each supernatant was then analyzed by HPLC.
To prepare tissues for HPLC and LC/TOF-MS analysis, we first added each sample to 0.3 mL methanol; the sample was homogenized and then sonicated for 5 min. The products were centrifuged at 13,000 rpm for 5 min at 4°C, and the supernatants were concentrated by solid-phase extraction using an Oasis HLB Plus cartridge (Waters Corp., Milford, MA, USA). The extracts were then analyzed by HPLC.
We used an HPLC system (Tosoh Corp., Tokyo, Japan) that consisted of a dual pump (DP-8020), a fluorescent photometer (FS-8020), and a column oven (CO-8020). Samples were separated at 40°C using a reverse-phase column (Unison UK-C18; Imtakt Corp., Kyoto, Japan) at a flow rate of 1.0 mL/min under a linear gradient of solution A (methanol/water = 24/76 vol/vol with 10 mM ammonium acetate) and solution B (methanol) for 20 min. BPA-GA was detected at excitation/emission of 275/308 nm and 1-NA-GA was detected at excitation/emission of 283/336 nm. The results were recorded using LC-8020 integration software (Tosoh Corp.); the elution peaks of BPA and BPA-GA were noted and the concentrations compared with the standards.
LC/TOF-MS was performed using the HPLC system described above and LCT premier XE (Waters Corp.). The flow rate of HPLC was 0.3 mL/min, and BPA-GA was monitored at m/z 403–404 by TOF-MS. In the present study, the limits of detection of BPA and BPA-GA in LC/TOF-MS were both 20 pmol/mL (data not shown).

UGT [2] = conditions: GD19.0; ref Matsumoto et al. 2002; cited from earlier work
[3] = design: method as in Krishnan et al. 1993; Nagel et al. 1997; conditions: in vivo and in vitro; ref Krishnan et al. 1993; Nagel et al. 1997; cited from earlier work
CD-1 mice = test system: CD-1 mice; design: method as in Timms et al. 2005; conditions: 10 μg/kg BPA/day; ref Timms et al. 2005; cited from earlier work
[4] = oral 10 mg/kg BPA to GD16.0 rat mothers; ref Domoradzki et al. (2003); cited from earlier work
UGT [5] = experiment: UGT enzyme analysis using hepatic microsomes; type: in vitro ADME, rat
Source text: We examined UGT enzymatic activity using hepatic microsomes. We prepared the microsomes from rat liver and performed UGT enzyme analysis as described previously by [Daidoji et al (2006)]. See the Supplemental Material (doi:10.1289/ehp.0901575) for details.
Figure 6 Metabolism of BPA-GA in the fetus. Abbreviations: H, fetal heart; L, fetal liver; ML, maternal liver; P, placenta. (A) Time course showing concentration of deconjugated BPA (mean ± SE) in the extract of cultured fetal liver and heart cells (see “Materials and Methods” for details; n = 5). (B) Expression of β-Gase in the fetal liver and heart on GD18.5 by RT-PCR. (C) Expression of UGT isoforms in ML, P, L, and […] determined by RT-PCR. […] Values shown are the concentration (mean ± SE) of glucuronide conjugates in microsome protein (nmol/μg) after 30-min reaction time (n = 5).

[6] = design: method as in Matthews et al. 2001; conditions: ref Matthews et al. 2001; cited from earlier work
[7] = test system: placental trophoblast primary cell culture; experiment: Deconjugation of BPA-GA in placental trophoblast primary cell culture; type: in vitro ADME, rat; conditions: data not shown
Experimental: After co-incubation with BPA-GA, we detected deconjugated BPA in fetal liver and to a small degree in fetal heart (Figure 6A). We observed β-Gase expression in both tissues (Figure 6B). […] The difference in deconjugation rates among tissues in the present study may reflect uptake into cells via transporters rather than through β-Gase expression. Another possibility is that BPA-GA is deconjugated in the placenta and then resultant BPA is transferred into the fetus by passive diffusion. Therefore, we also examined deconjugation of BPA-GA in placental trophoblast primary cell culture. […] The possibility of transfer of placental deconjugated BPA could not be excluded completely in this experiment. Further work is required to examine the tissue-specific deconjugation of BPA-GA and the possibility of BPA transfer.

fetal heart cells = experiment: Incubation of fetal primary cell cultures with BPA-GA (deconjugation); type: in vitro ADME, rat; conditions: 25 μM BPA-GA, 37°C, 10-120 min, GD18.5
Experimental: (§1) Fetal liver and heart tissues, collected on GD18.5, were washed twice with cold phosphate-buffered saline (PBS). Tissues for two fetuses were combined in one tube and then minced in cold PBS and centrifuged for 5 min at 100 × g at 4°C. After removing the supernatant, the pellets were resuspended in 5 mL William’s medium (Sigma-Aldrich, Inc., St. Louis, MO, USA) containing collagenase (350 U; Wako Pure Chemical Industries, Ltd., Osaka, Japan) and DNase I (375 U; Roche Diagnostics, Basel, Switzerland) and incubated for 30 min at 37°C. After the incubation, samples were centrifuged for 5 min at 100 × g at 4°C, and the supernatants were removed. The remaining cells, which had been isolated from two fetuses, were resuspended in 200 μL William’s medium with or without 25 μM BPA-GA and incubated at 37°C for 10, 30, 60, or 120 min. At each time point, cells and medium were pooled and extracts were prepared for HPLC as described above, by adding the same volume of methanol. All experiments were repeated five times. Values express the mean ± SE.

fetal liver cells = experiment: as above; type: in vitro ADME, rat; conditions: 25 μM BPA-GA, 37°C, 10-120 min, GD18.5
Experimental: as §1

[8] = 2 μM substrate 20 min then 70 min without substrate, GD18.5, mean ± SD, n = 4

Compound	Amount of substrate (glucuronide) detected in perfusate (maternal side) ([1]; GD18.5, mean ± SD, n = 4)	UGT activity toward BPA in pregnant rats relative to nonpregnant adult rats (UGT [2])	Estrogenic activity [3]	Effect of maternal exposure on prostate and urethra in male fetuses (CD-1 mice)	Concentration of BPA-GA in the fetus compared with that in maternal plasma [4]	Fetal UGT activity toward BPA relative to nonpregnant adult rats (UGT [5]; late pregnancy, in theory, from 20% of maternal and 70% pregnant/nonpregnant)	UGT activities in fetal liver microsomes compared with those in the mother (UGT [5]; liver microsomes, GD18.5)	Fetal UGT activity toward substrate relative to maternal microsomes (UGT [5]; liver microsomes, GD18.5, 30-min reaction)	Share of the total amount of BPA-GA detected in the fetus ([1]; 2 μM BPA-GA 20 min, total perfusion 90 min)	BPA-GA in the collected perfusate after 70 min ([1]; 2 μM BPA-GA 20 min then perfusion without BPA-GA, n = 4)	Amount of deconjugated substrate (BPA or 1NA) detected in amniotic fluid [1, 8]	Amount of deconjugated substrate (BPA or 1NA) detected in fetus [1, 8]	Amount of substrate (glucuronide) detected in fetus [1, 8]	Deconjugated BPA in the fetus and amniotic fluid after preliminary perfusion ([1]; 10 μM BPA-GA, 20-min inflow, HPLC)	BPA-GA in the fetus and amniotic fluid after preliminary perfusion ([1]; 10 μM BPA-GA, 20-min inflow, HPLC, confirmed by LC/TOF-MS)	Biological activity of metabolite [6]	Deconjugation of BPA-GA in trophoblast cells [7]	Deconjugation of BPA-GA to BPA in fetal heart cells (fetal heart cells)	Deconjugation of BPA-GA to BPA in fetal liver cells (fetal liver cells)
O=C(O)[C@H]1O[C@@H](Oc2cccc3ccccc23)[C@H](O)[C@@H](O)[C@@H]1O [1-NA-GA, 1-naphthol-glucuronide, reference compound]	111.77 ± 2.58 nmol																		
CC(C)(c1ccc(O)cc1)c1ccc(O)cc1 [BPA, Bisphenol A]		about 70%	weak estrogenic activity	induces abnormal development of the prostate and urethra	approximately 0.1%	< 15%	quite low	about 20%											
CC(C)(c1ccc(O)cc1)c1ccc(O[C@@H]2O[C@H](C(=O)O)[C@@H](O)[C@H](O)[C@H]2O)cc1 [BPA-GA, BPA-glucuronide]	113.10 ± 6.92 nmol								about 0.09%	barely detected	31.35 ± 4.52 pmol	6.45 ± 1.45 pmol	109.26 ± 36.75 pmol	detected	detected	biologically inactive	did not observe deconjugation	to a much smaller degree	in a time-dependent manner
